What was measured:
Assay type in all cases: cell-based, human
[1] = system: ER+ tumor-derived cells and cell lines; test: OXPHOS potential (Seahorse) in HT-treated cancer cells; details: fulvestrant; FIG. 11c
Description: (§1) (Panel a), Representative bright field images of MCF7 po cells±CAF-EVs (3×10^9/weekly for 40 days). Bar graph of number of MS is also reported at the endpoint of the experiment (40 days). (Panel b), HT led to decreased expression of mRNA involved in protein synthesis and OXPHOS signaling with z score and -log (p-values)- as determined by Ingenuity analysis of microarray data from RNA isolated FIG. 5a (MCF7), single P values are also reported. (Panel c), OXPHOS potential determined as changes of respiration rate under mitochondrial stressors by seahorse technology (oligomycin 1 μM, rotenone 100 nM) in cancer cells isolated from FIG. 5b (MCF7, PT1). […] (Panel e), Mitochondrial Complex I/IV activity quantification as determined by nmol/min/mg of protein in luminal breast cancer cell lines from panel a. […]
Mitochondrial respiration and OXPHOS potential in cells was assessed using Seahorse technology (www.seahorsebio.com)(Qian, W. & Van Houten, B. Alterations in bioenergetics due to changes in mitochondrial DNA copy number. Methods 51, 452-457 (2010)). Oxygen consumption rate (OCR), extracellular acidification rate and glycolytic potential were determined using the Seahorse extracellular flux analyzer (XF-96, XF-24 Seahorse Bioscience). […] Furthermore OXPHOS potential was determined by measuring the area of the progress curve after the addition of glucose and rotenone/oligomycin.

[2] = system: mitochondrial complex I and IV; test: Mitochondrial complex I/IV activity in HT-treated luminal breast cancer cell lines; details: fulvestrant; FIG. 11e
Description: as §1
To measure mitochondrial complex activity, cell pellets were resuspended in assay buffer (125 mM sucrose, 0.1 mM EDTA, 25 mM Tris-HCl pH 7.5, 0.025% Lauryl-β-D-maltoside), and enzymatic activities were assayed with 0.1-0.4·10^6 cells/ml at 25° C. spectrophotometrically. NADH:HAR reductase activity of Complex I was measured as a decrease in absorption at 340 nm (ε340 nm=6.22 mM-1 cm-1) with 200 μM NADH, 1mM HAR and 1 mM KCN. Complex IV activity was measured as cytochrome oxidation at 550 nm (ε550 nm=21.5 mM-cm-) with 50 μM ferrocytochrome c. […] Protein content was determined with a BCA assay.

HTS cells = test: OXPHOS potential (Seahorse) in FACS sorted tumor-derived cancer cells ± HT; details: fulvestrant 10 μM, FIG. 2b
Description: (§2) (Panel a) Representative tumor growth kinetics (BLI) of GFP+/Luciferase+MCF7 xenografts (n=10) treated with weekly fulvestrant once mammary fat pad tumors were established (after 3 months) which led to a period (4 months) of disease stability on HT (HTS) followed by exponential growth on HT (HTR). Representative H&E images of tumors and primary cultures from unsorted as well as FACS purified cancer cells (GFP+/Epcam+) and murine CAFs (GFP−/Epcam). Scale bar 20 μm. (Panel b) OXPHOS potential in tumor-derived cancer cells (panel a) was measured±HT (fulvestrant, 10 μM) by Seahorse. […] (Panel d) Percentage of metastatic lesions isolated by FACS from tumor-bearing mice (n=8/group) expressing murine mtDNA as determined by ND1 qPCR (2 ng of total DNA). Oxygen consumption rates (OCR) in murine-mtDNApos and ctrl HTR cells determined by Seahorse. (Panel e) Murine mitochondrial RNA expression (12 genes: ND1, ND2, COX2, ATP8, ATP6, COX3, ND3, ND4L, ND4, ND5, ND6, CytB) as fold change (logioscale) determined by qRT-PCR in HTR and HTS cells (panel a). […]
(§3) Mitochondrial respiration and OXPHOS potential in cells was assessed using Seahorse technology (www.seahorsebio.com)(Qian, W. & Van Houten, B. Alterations in bioenergetics due to changes in mitochondrial DNA copy number. Methods 51, 452-457 (2010)). […]

HTR tumor-derived cells = test: as above; details: fulvestrant 10 μM, FIG. 2b
Description: as §2, §3

[3] = system: mitochondrial complex protein; test: Western blot of OXPHOS protein cocktail in HT-treated cells; details: fulvestrant; FIG. 11d
Description: as §1
For immunoblotting assays, cells were lysed in buffer (50 mmol/L Tris at pH 7.5, 150 mmol/L NaCl, 5 μg/mL aprotinin, pepstatin, 1% NP-40, lmmol/L EDTA, 0.25% deoxycholate, and protease inhibitor cocktail tablet, Sigma). […] The enrichment of CAFs in xenografts was determined by desmin immunohistochemistry (IHC) in tumor-derived sections. […] Viable cells were determined 7-14 days after treatment using trypan blue and cell counting using bright field microscopy or DAPI exclusion staining by flow cytometry (Dako Cytomation). […]

SMILES: C[C@]12CC[C@@H]3c4ccc(O)cc4C[C@@H](CCCCCCCCC[S+]([O-])CCCC(F)(F)C(F)(F)F)[C@H]3[C@@H]1CC[C@@H]2O (some centres unmarked) [fulvestrant]
- OXPHOS potential in cells treated with HT [1]: reduced
- mitochondrial complex I and IV activity in cells treated with HT [2]: reduced
- OXPHOS potential of HTS cells (HTS cells): inhibited
- OXPHOS capacity of HTR tumor-derived cells (HTR tumor-derived cells): unaffected
- mitochondrial complex protein expression in cells treated with HT [3]: reduced
